The MIC50 is an inhibitory concentration at the 50% level, which refers to growth in some studies and to a panel of isolates in others. A word on the MIC90: it is an inhibitory concentration at the 90% level, which refers to growth in some studies and to a panel of isolates in others.

Here are results for four compounds from ChEMBL document CHEMBL1255415, “In vitro activity of penem-1 in combination with beta-lactams against blaKPC-possessing Klebsiella pneumoniae isolates” (2010).

Assay [1] relates to Klebsiella pneumoniae. The experiment in a line: Inhibition of Beta-lactamase KPC-2 in Klebsiella pneumoniae isolates assessed as reduction in antimicrobial MIC of beta-lactams by agar dilution method relative to untreated control. (Agar dilution tests growth on a series of plates holding different concentrations.)
Assay [2] concerns Klebsiella pneumoniae. Briefly: Antimicrobial activity against blaKPC-possessing Klebsiella pneumoniae isolates assessed as susceptible isolates by agar dilution method. Format: functional.
Assay [3] concerns Klebsiella pneumoniae. The experiment in a line: Antimicrobial activity against blaKPC-possessing Klebsiella pneumoniae isolates in presence of 4 ug/ml by agar dilution method. Format: functional.
Assay [4] relates to Klebsiella pneumoniae. The experiment in a line: Antimicrobial activity against blaKPC-possessing Klebsiella pneumoniae isolates assessed as susceptible isolates in presence of 4 ug/ml by agar dilution method. Format: functional.
In assay [5] the test system is Klebsiella pneumoniae. The experiment in a line: Antimicrobial activity against blaKPC-possessing Klebsiella pneumoniae isolates by agar dilution method. The class given is functional.

≈ marks a conversion by molar mass, not a printed value. Calls of active or inactive are those of the source. The calls are words filed in the database; no cut-off is given here.

With `CO/N=C(\C(=O)N[C@@H]1C(=O)N2C(C(=O)[O-])=C(C[N+]3(C)CCCC3)CS[C@H]12)c1csc(N)n1` [CEFEPIME], the “Reduction in beta-lactam MIC (qualitative call)” value (shortened to “Reduction in beta-lactam MIC”) in assay [1] is “Active”. The figures for the Activity in assay [2] and in assay [4] were 7.1% and 88.1%, respectively. In addition, the MIC50 in assay [3] was determined as 2 µg/mL; in assay [5], 32 µg/mL (≈ 66.6 µM). For the same compound, the MIC90 amounted to 16 µg/mL in assay [3] and 128 µg/mL (≈ 266 µM) in assay [5].

In the case of `C[C@H]1[C@H](NC(=O)/C(=N\OC(C)(C)C(=O)O)c2csc(N)n2)C(=O)N1S(=O)(=O)O` [AZTREONAM], the inhibition result in assay [1] is “Active”. The Activity in assay [2] is reported as 0%; in assay [4], 14.3%. In addition, the MIC50 in assay [3] is 16 µg/mL; in assay [5] it was at least 512 µg/mL. Moreover, the MIC90 is 128 µg/mL in assay [3] and at least 512 µg/mL in assay [5].

As for `CCN1CCN(C(=O)N[C@@H](C(=O)N[C@@H]2C(=O)N3[C@@H]2SC(C)(C)[C@@H]3C(=O)O)c2ccccc2)C(=O)C1=O` [PIPERACILLIN], in assay [1], the “Reduction in beta-lactam MIC” value was “Active”. Further, the Activity in assay [2] was determined as 0%; in assay [4], 16.7%. The MIC50 is 64 µg/mL in assay [3] and at least 512 µg/mL in assay [5]. Moreover, the MIC90 in assay [3] was 128 µg/mL; in assay [5] it was at least 512 µg/mL.

`CO/N=C(\C(=O)N[C@@H]1C(=O)N2C(C(=O)O)=C(COC(C)=O)CS[C@H]12)c1csc(N)n1` [CEFOTAXIME]: in assay [1], the “Reduction in beta-lactam MIC” value is “Active”. Moreover, the results for the Activity in assay [2] and in assay [4] were 0% and 38.1%, respectively. For the same compound, the MIC50 in assay [3] was 2 µg/mL; in assay [5], 64 µg/mL (≈ 141 µM). The MIC90 in assay [3] is 4 µg/mL; in assay [5], at least 512 µg/mL.
